# “And” between values parts separate entries of the source, which are not always exact repeats. Identical values can stand only once.
# What was measured:
# melanoma = settings: Yue et al. 2009; cited from earlier work
# [1] = target: tryptophan 2,3-dioxygenase (TDO) (Homo sapiens, UniProt P48775); settings: Seegers et al. 2014; cited from earlier work
# TDO = TDO (Homo sapiens, UniProt P48775); settings: read-out: KM,Trp of TDO for L-tryptophan; cited from earlier work
# IDO1 [2] = target: T1, IDO1 (Homo sapiens, UniProt P14902); set-up: Recombinant full-length IDO1 (Seegers, N., et al.) and all other assay components were diluted in IDO1 reaction buffer; made in house; settings: read-out: KM,Trp of IDO1 for L-tryptophan; cited from earlier work
# lung carcinoma = settings: syngeneic mouse lung carcinoma model and transgenic mouse model; cited from earlier work
# Leishmania major = Leishmania major infection; cited from earlier work
# influenza virus = settings: influenza virus-infected mice; cited from earlier work
# [3] = tested on: IDO1 expressed in mouse tumor cells; settings: pre-immunized mice; Uyttenhove et al.; cited from earlier work
# [4] = tested on: melanoma and glioblastoma; settings: mouse tumor models for melanoma and glioblastoma; cited from earlier work
# IDO1 [5] = target: T1, IDO1; assay: Cell-based assay for IDO1 in interferon-γ stimulated A-375 melanoma cells; settings: interferon-γ stimulation, 48 hours, read-out: IC50, cell-based IDO1 (NFK levels)
# How it was run: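 Compound added to A-375 cells 1 h before IFN-γ (5 μl of 500 ng/ml stock) plus L-tryptophan in 20 mM Hepes pH 7.4; 48 h incubation at 37 °C, 0.4% DMSO final. NFK quantified by NFK Green fluorescence after 4 h at 37 °C; IC50 from fitted curves.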
# IDO1 [6] = target: T1, IDO1; assay: Biochemical IDO1 assay (NFK GreenScreen); set-up: Recombinant full-length IDO1 (Seegers, N., et al.) and all other assay components were diluted in IDO1 reaction buffer; made in house; settings: recombinant full-length IDO1 25 nM, L-tryptophan 100 μM, NFK Green detection; read-out: IC50, inhibitory potency on IDO1
# How it was run: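 Recombinant full-length IDO1 in 50 mM NaH2PO4 pH 7.0 with 0.05% Tween-20 and 1% glycerol converted 100 μM L-tryptophan (final) over 60 min at room temperature with compound, 0.3% DMSO.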
# T1 sequence (P14902 whole entry, species assumed): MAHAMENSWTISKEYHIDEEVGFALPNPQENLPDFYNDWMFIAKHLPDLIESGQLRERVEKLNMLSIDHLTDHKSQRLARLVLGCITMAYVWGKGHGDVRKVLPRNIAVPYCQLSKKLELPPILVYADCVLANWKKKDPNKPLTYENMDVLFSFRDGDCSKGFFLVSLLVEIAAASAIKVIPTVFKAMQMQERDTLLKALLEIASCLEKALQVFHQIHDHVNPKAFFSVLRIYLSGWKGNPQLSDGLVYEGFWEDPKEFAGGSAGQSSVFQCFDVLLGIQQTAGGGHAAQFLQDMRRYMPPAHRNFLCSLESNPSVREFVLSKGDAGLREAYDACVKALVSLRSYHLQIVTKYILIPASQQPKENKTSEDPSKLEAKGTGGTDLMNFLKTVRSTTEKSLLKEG
# tryptophan 2,3-dioxygenase (TDO), sequence (P48775 whole entry, species assumed): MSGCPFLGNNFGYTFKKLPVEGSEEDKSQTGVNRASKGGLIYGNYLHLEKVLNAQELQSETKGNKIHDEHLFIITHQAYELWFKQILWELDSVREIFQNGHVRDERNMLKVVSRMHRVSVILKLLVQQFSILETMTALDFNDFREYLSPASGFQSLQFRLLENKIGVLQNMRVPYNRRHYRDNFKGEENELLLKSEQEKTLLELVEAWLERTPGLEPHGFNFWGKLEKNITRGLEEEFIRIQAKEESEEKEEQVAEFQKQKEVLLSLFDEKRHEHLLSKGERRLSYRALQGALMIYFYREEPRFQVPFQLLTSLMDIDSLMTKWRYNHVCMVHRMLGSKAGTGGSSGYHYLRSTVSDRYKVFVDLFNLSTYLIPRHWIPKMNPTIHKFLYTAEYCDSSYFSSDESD
# TDO, sequence (P48775 whole entry, species assumed): as above
structure (smiles),measurement,setting,value
"Nc1nonc1C(=NO)Nc1ccc(F)c(Cl)c1 [compound 51, 4-amino-N-(3-chloro-4-fluorophenyl)-N′-hydroxy-1,2,5-oxadiazole-3-carboximidamide]",tumor growth in mouse model for melanoma,melanoma,reduction of tumor growth
same,inhibition of TDO activity in biochemical assays,[1],"inhibit the activity of tryptophan 2,3-dioxygenase (TDO)"
N[C@@H](Cc1c[nH]c2ccccc12)C(=O)O [L-tryptophan],Km,TDO,190 µM
same,Km,IDO1 [2],6 µM
"Cn1cc(C[C@H](N)C(=O)O)c2ccccc21 [Example 1-MT, 1-methyl-L-tryptophan]",efficacy of a cancer vaccine in combination,lung carcinoma,increased the efficacy of a cancer vaccine
same,parasite burden,Leishmania major,reduced the parasite burden
same,T cell response against influenza virus,influenza virus,enhanced T cell response against the virus
same,reversal of IDO1-mediated prevention of tumor cell rejection,[3],this effect could be reverted
same,efficacy of PD-1 and CTLA4 antibodies in combination,[4],increased the efficacy of antibodies targeting the immune checkpoints PD-1 and CTLA4
"O=C1CN(C(=O)c2ccccc2F)C(c2cccc(Cl)c2)N1O (stereo not shown) [Example 13, 2-(3-Chlorophenyl)-1-(2-fluorobenzoyl)-3-hydroxy-imidazolidin-4-one]",IC50,IDO1 [5],< 5 µM
same,IC50,IDO1 [6],≤ 1 µM
"O=C1CN(C(=O)c2cccc(F)c2)C(c2ccc(F)c(Br)c2)N1O (stereo not shown) [Example 43, 2-(3-Bromo-4-fluoro-phenyl)-1-(3-fluorobenzoyl)-3-hydroxy-imidazolidin-4-one]",IC50,IDO1 [5],< 5 µM
same,IC50,IDO1 [6],≤ 5 µM and 1 to 5 µM

# Reference: patent US10494360B2, “Inhibitors of indoleamine 2,3-dioxygenase” (NETHERLANDS TRANSLATIONAL RESEARCH CENTER B.V., priority 2016, dated 2019)
